Structures are written as SMILES.

For test [1], the system named is Plasmodium falciparum. The test is described as follows: microbe, parasite or virus in culture. The following applies: 3D7, 72 h.
Description: Growth inhibition of Plasmodium falciparum 3D7 ring stage in infected erythrocytes after 72 hrs in DAPI fluorimetry
Test [2] concerns Plasmodium falciparum. The test is described as follows: microbe, parasite or virus in culture. The following applies: HB3, 72 h.
Description: Growth inhibition of Plasmodium falciparum HB3 ring stage in infected erythrocytes after 72 hrs in DAPI fluorimetry
For test [3], the system named is Plasmodium falciparum. The test can be described thus: microbe, parasite or virus in culture. The following applies: Dd2, 72 h.
Description: Growth inhibition of Plasmodium falciparum Dd2 ring stage infected erythrocytes after 72 hrs by DAPI fluorimetry
The test system of test [4] is Plasmodium falciparum. The test can be described thus: (§1) Growth inhibition of Plasmodium falciparum ring stage in infected erythrocytes by DAPI growth assay. It is filed as functional, organism-based.
Test [5] has as its system Plasmodium falciparum. The description is as §1. It is filed as functional, organism-based. This is another data set of the same source.
For test [6], the system named is Plasmodium falciparum. The test can be described thus: Growth inhibition of Plasmodium falciparum as reduced [3H]hypoxanthine incorporation. It is filed as functional, organism-based.

For the compound `CCc1nc(N)nc(N)c1-c1ccc(Cl)cc1` [PYRIMETHAMINE], the results for the IC50 in test [1], in test [2] and in test [3] were 10 nM, 49.9 nM and 44.1 nM, respectively.
For the compound `O=C1C(O)=C([C@H]2CC[C@H](c3ccc(Cl)cc3)CC2)C(=O)c2ccccc21` [ATOVAQUONE], the values for the IC50 in test [4], in test [5] and in test [6] were 0.66 nM, 0.63 nM and 0.61 nM, respectively.
With `C[C@@H]1CC[C@H]2[C@@H](C)C(=O)O[C@@H]3O[C@@]4(C)CC[C@@H]1[C@]32OO4` [ARTEMISININ], the IC50 in test [1] was 10.8 nM; in test [2], 9.7 nM; in test [4], 10.8 nM; in test [5], 9.67 nM; in test [3], 12.3 nM; in test [6] it was 10.1 nM.
Turning to `C=C[C@H]1CN2CC[C@H]1C[C@H]2[C@H](O)c1ccnc2ccc(OC)cc12` [QUININE], the IC50 in test [4] is 66.5 nM; in test [5] it was 69.2 nM; in test [6], 62.8 nM.
For `OC(c1cc(C(F)(F)F)nc2c(C(F)(F)F)cccc12)C1CCCCN1` (stereo not drawn) [MEFLOQUINE], the IC50 in test [1] was determined as 12.3 nM; in test [2], 9.63 nM; in test [3], 26 nM.

The values are drawn from ChEMBL document CHEMBL1142194, “High-throughput Plasmodium falciparum growth assay for malaria drug discovery” (Antimicrob Agents Chemother, 2007).
